The results in this text go back to patent US12624122B2, “Affinity maturated TAG72 specific single chain antibodies” (H. Lee Moffitt Cancer Center and Research Institute, Inc., priority 2016, dated 2026).

Common to all, as to assay type: cell-based
The subject of data set [1] is MDA-231 cells. Put plainly: flow cytometry apoptosis (annexin V and PI), MDA-231 cells with human CD8 T cells. An excerpt:
(§1) FIGS. 5 to 96 are flow cytometry plots testing the disclosed bispecific antibodies. Table 1 summarizes flow cytometry results measuring apoptosis with annexin V and PI in gated populations of MCF-7 and MDA-231 cells treated with human CD8 T cells with bi-specific antibodies plus or minus the photosensitizing compound verteporfin.

For data set [2], the system named is programmed cell death ligand 1 (PDL1). Put plainly: tumor cell PDL1 surface expression.
For data set [3], the system named is MCF-7 cells. Put plainly: flow cytometry apoptosis (annexin V and PI), MCF-7 cells with human CD8 T cells.
From the text: as §1

verteporfin [Vs]: the “Control group (%) viable cells” value in data set [1] (CD8 + Vs (1 μM)) is on record as “(56.3) %”; in data set [1] (CD8 + Vs (2 μM)) it was “(57.4) %”; in data set [1] (CD8 + Vs (5 μM)), “(55.3) %”; in data set [3] (CD8 + Vs (1 μM)), “(19) %”; in data set [3] (CD8 + Vs (2 μM)), “(13.3) %”; in data set [3] (CD8 + Vs (5 μM)) it was “(7.51) %”. In addition, the “tumor cell PDL1 surface expression” value in data set [2] was “reduce tumor cell programmed cell death ligand 1 (PDL1) surface expression”.
